In general, IC50 refers to the concentration at which inhibition is half-maximal. Lower therefore signals higher potency.

This passage reports IC50 results from patent US20250092033A1, “HETEROAROMATIC NITROGEN-OXIDE COMPOUND, PREPARATION METHOD THEREFOR, AND USE THEREOF” (BEIJING AVISTONE BIOTECHNOLOGY CO., LTD., priority 2021, published 2025).

In assay [1] the target is T1, wild type (WT) MET kinase (Homo sapiens, UniProt P08581).
T1 construct: purchased Carna 08-151
In words: Kinase inhibition experiment (HTRF KinEASE-TK kit), wild-type MET. Format: biochemical. The note with it: 10 concentrations, 3-fold dilution. Summed up: (§1)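 Wild-type or mutant MET pre-incubated 10 min with compound (10 concentrations, 3-fold dilutions, duplicates), then TK-substrate-biotin/ATP added for 50 or 10 min at room temperature in buffer with 5 mM MgCl2, 1 mM DTT, 1 mM MnCl2. HTRF read at 665/615 nm; % inhibition vs controls, IC50 by nonlinear sigmoidal fit.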
(In general: In TR-FRET formats the signal depends on donor and acceptor labels being close together.)

Another assay concerns the target T2, MET F1200I (Homo sapiens, UniProt P08581, F1200I).
T2 construct: purchased Signalchem M52-12GG/Y767-2
As to the kind of experiment: Kinase inhibition experiment (HTRF KinEASE-TK kit), mutant MET F1200I. Format: biochemical. The note with it: 10 concentrations, 3-fold dilution. Summed up:
as §1

The target of another assay is T3, MET D1228N (Homo sapiens, UniProt P08581, D1228N).
T3 construct: purchased Signalchem M52-12IG
T3 sequence (P08581 25-1390 D1228N): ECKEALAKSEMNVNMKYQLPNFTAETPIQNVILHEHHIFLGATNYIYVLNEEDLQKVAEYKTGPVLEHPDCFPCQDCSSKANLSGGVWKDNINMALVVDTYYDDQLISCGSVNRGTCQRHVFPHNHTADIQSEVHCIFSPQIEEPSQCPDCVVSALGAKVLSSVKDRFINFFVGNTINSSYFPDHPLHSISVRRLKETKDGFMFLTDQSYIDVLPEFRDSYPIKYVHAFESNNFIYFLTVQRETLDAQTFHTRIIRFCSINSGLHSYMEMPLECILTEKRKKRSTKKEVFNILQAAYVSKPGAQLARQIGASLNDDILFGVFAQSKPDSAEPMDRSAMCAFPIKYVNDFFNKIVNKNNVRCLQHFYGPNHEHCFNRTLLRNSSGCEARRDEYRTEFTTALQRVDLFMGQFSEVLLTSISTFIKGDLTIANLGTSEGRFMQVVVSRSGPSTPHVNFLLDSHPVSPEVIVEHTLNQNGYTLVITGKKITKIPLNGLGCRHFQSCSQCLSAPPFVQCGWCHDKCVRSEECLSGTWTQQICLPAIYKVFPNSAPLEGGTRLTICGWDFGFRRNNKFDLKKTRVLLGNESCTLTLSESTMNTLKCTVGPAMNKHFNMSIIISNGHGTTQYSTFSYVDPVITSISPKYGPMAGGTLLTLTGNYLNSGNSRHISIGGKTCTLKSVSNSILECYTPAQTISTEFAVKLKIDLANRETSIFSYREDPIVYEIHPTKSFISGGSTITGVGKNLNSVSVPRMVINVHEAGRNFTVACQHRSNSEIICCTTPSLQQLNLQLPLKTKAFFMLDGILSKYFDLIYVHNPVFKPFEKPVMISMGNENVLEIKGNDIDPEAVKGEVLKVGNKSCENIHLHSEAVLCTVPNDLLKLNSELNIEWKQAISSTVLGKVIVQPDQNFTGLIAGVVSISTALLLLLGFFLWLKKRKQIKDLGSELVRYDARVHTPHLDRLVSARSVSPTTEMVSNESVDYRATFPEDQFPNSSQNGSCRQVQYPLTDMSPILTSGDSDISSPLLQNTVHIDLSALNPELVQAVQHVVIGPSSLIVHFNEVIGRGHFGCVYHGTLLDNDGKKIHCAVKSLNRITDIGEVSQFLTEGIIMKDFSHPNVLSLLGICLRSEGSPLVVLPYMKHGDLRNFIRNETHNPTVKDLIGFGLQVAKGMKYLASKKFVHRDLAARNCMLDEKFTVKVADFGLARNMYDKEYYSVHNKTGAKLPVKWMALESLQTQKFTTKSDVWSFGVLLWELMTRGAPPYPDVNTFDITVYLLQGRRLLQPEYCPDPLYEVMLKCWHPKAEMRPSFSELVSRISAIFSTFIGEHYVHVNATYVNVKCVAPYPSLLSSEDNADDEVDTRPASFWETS
As to the kind of experiment: Kinase inhibition experiment (HTRF KinEASE-TK kit), mutant MET D1228N. Format: biochemical. As to conditions: 10 concentrations, 3-fold dilution. Summed up:
as §1

The test system of a further assay is Hs746T cell line. As to the kind of experiment: Cell proliferation inhibition experiment (CellTiter-Glo), Hs746T. Format: cell-based. As to conditions: Homo sapiens, Hs 746T, CTG, 72 h. As to the method: (§2) CellTiter-Glo™ live cell detection kit adopts luciferase as the detection substance, and the luciferase needs the participation of ATP in the luminescence process. CellTiter-Glo™ reagent was added into the cell culture medium and the luminescence value was measured. The light signal is in direct proportion to the amount of ATP in the system, ATP is in direct correlation with number of living cells. Therefore, the proliferation of cells can be detected by detecting the content of ATP with CellTiter-Glo kit.
(§3) In the experiment, the proliferation inhibition effect of the prepared compounds on tumor cell lines Hs746T, EBC-1 and H1993 was measured by a celltiter-glo (CTG) method, and 50% inhibition concentration IC50 was calculated.
(§4) The compounds were determined on the selected cells, the solvent control was set and a total of 10 concentrations were detected, 2 replicates per concentration.
(§5) a) Cells in the logarithmic growth phase were harvested and counted by a […]. The cell viability was detected by a trypan blue exclusion method to ensure that the cell viability was over 90%.
(§6) b) The cell concentration was adjusted; 30 μL of cell suspension was added to a 384-well plate respectively.
(§7) c) Cells in a 384-well plate were incubated overnight at 37° C., 5% CO2 and 95% humidity.
(§8) a) 10 times of drug solution was prepared with the highest concentration of 10 mM, 10 concentrations and 3 times dilution, 10 μL of drug solution was added into each well of a 384-well plate inoculated with cells, and three multiple wells were arranged for each drug concentration. DMSO was the blank control.
(§9) b) The cells in the 384-well plate were incubated for a further 72 h at 37° C., 5% CO2 and 95% humidity before CTG analysis.
(§10) a) The CTG reagent was melted and the cell plate was equilibrated to room temperature for 30 min.
(§11) b) An equal volume of CTG solution was added to each well.
(§12) c) Cells were lysed by shaking on an orbital shaker for 5 minutes.
(§13) d) The cell plate was left at room temperature for 20 minutes to stabilize the luminescence signal.
(§14) e) The cold light value was read.
(§15) The data was analyzed by GraphPad Prism 8 software, and the dose-response curve was fitted with nonlinear S-curve regression, and the IC50 value was calculated therefrom.
(§16) Cell viability(%)=(Lumdrugs to be tested-Lumblank control)/(Lumcell control-Lumblank control)×100%.
In general terms: ATP-based viability assays read luminescence as a measure of living cells.

The next assay relates to H1993 cell line. As to the kind of experiment: Cell proliferation inhibition experiment (CellTiter-Glo), H1993. Format: cell-based. The note with it: Homo sapiens, NCI-H1993, CTG, 72 h. How it is done: as §2, §3, §4, §5, §6, §7, §8, §9, §10, §11, §12, §13, §14, §15, §16
Another assay relates to EBC-1 cell line. In words: Cell proliferation inhibition experiment (CellTiter-Glo), EBC-1. Format: cell-based. The note with it: Homo sapiens, CTG, 72 h. How it is done:
as §2, §3, §4, §5, §6, §7, §8, §9, §10, §11, §12, §13, §14, §15, §16

Molecules are shown by their SMILES.

T2 sequence (P08581 25-1390 F1200I): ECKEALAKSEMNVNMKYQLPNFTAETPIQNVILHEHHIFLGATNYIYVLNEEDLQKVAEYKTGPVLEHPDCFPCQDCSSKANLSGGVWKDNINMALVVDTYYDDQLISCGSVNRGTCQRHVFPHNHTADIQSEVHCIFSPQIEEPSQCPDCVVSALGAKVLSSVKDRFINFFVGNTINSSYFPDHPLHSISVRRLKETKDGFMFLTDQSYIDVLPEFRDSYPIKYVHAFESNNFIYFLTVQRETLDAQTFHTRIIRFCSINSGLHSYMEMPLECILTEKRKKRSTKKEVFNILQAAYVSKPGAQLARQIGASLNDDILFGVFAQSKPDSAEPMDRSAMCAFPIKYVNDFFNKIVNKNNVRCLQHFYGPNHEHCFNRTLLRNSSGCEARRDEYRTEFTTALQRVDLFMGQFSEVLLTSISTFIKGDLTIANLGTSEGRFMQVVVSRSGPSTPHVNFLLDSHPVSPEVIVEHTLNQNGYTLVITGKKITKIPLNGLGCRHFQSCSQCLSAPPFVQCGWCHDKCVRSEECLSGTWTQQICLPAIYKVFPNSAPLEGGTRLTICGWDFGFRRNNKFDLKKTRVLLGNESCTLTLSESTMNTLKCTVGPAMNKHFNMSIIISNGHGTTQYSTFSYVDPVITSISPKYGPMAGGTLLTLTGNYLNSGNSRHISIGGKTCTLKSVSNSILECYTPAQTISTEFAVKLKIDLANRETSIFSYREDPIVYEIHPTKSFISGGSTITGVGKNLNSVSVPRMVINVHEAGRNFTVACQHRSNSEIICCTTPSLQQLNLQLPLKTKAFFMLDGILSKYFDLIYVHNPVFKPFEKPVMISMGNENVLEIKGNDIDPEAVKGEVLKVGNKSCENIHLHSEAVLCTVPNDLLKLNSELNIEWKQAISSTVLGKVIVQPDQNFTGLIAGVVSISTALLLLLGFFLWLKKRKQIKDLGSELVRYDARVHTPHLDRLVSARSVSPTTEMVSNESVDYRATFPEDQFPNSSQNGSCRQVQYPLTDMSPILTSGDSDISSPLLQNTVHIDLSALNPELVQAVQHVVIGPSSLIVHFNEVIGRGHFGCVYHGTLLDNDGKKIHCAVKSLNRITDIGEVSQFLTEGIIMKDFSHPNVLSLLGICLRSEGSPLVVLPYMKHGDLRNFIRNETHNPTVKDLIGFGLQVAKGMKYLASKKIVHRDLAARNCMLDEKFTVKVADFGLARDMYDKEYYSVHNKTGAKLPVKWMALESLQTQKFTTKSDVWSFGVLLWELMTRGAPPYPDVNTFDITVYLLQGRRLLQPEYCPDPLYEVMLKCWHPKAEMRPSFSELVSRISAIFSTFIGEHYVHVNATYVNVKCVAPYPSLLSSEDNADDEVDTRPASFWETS
T1 sequence (P08581 25-1390): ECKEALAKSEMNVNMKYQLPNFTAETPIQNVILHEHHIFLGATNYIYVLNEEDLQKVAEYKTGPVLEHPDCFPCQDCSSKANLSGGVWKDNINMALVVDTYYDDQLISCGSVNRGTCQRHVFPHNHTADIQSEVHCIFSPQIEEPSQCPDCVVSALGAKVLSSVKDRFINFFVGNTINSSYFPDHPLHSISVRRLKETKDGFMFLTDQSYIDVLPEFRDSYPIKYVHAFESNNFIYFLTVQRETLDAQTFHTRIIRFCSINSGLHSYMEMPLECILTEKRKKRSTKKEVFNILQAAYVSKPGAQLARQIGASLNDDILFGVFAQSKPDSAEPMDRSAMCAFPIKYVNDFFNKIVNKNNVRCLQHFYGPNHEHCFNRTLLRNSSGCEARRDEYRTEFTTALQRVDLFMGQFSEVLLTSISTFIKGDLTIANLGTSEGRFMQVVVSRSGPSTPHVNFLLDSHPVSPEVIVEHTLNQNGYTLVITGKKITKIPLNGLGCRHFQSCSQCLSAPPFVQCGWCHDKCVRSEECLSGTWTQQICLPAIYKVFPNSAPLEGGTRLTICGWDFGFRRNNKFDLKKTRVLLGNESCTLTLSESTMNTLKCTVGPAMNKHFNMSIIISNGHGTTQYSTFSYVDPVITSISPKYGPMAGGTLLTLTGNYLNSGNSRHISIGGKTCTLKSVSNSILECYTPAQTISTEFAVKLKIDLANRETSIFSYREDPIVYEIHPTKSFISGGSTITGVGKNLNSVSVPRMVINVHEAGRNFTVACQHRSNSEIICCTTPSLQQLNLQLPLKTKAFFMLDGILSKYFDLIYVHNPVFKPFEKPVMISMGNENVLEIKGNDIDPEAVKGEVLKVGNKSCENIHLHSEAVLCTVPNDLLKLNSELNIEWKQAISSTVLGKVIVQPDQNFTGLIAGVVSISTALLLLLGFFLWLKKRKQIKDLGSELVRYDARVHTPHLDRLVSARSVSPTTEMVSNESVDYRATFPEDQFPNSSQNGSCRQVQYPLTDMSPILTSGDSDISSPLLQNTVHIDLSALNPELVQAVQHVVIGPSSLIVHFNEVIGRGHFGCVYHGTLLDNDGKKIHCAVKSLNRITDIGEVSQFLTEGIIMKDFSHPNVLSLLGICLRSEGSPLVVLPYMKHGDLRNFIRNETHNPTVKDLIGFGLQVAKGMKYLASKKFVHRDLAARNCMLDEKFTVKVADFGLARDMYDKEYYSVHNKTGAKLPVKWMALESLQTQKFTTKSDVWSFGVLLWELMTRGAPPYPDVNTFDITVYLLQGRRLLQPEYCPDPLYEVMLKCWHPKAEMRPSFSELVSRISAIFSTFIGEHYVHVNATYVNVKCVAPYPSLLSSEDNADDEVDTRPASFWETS

As to `Cc1ccc(C(=O)Nc2ccc(Oc3ccnc4[nH]nc(N[C@H](C)CO)c34)c(F)c2)[n+]([O-])c1-c1ccc(F)cc1` [Final product 67], the IC50 in assay [1] was 4 nM; at MET F1200I, 16.3 nM; at MET D1228N it was 12.3 nM; in the assay with Hs746T cell line it was 4.2 nM; with H1993 cell line, 19.1 nM; with EBC-1 cell line, 6.6 nM.

For `Cc1ccc(C(=O)Nc2ccc(Oc3ccnc4[nH]nc(NCC(O)CO)c34)c(F)c2)[n+]([O-])c1-c1ccc(F)cc1` (stereo not drawn) [Final product 69], the IC50 in assay [1] amounted to 3 nM; against MET F1200I it was 12.3 nM; at MET D1228N, 25.4 nM; with Hs746T cell line, 19.6 nM; in the assay with H1993 cell line it was 68.4 nM; in the assay on EBC-1 cell line it was 29.3 nM.

In the case of `CCc1ccc(C(=O)Nc2ccc(Oc3ccnc4[nH]nc(N[C@H](C)CO)c34)c(F)c2)[n+]([O-])c1-c1ccc(F)cc1` [Final product 80], the 50% inhibitory concentration (IC50) in assay [1] came out at 1.5 nM; at MET F1200I, 2.3 nM; at MET D1228N, 9.8 nM; with Hs746T cell line, 9.6 nM; with H1993 cell line it was 26.8 nM; in the assay with EBC-1 cell line, 8.7 nM.

Regarding `COc1ccc(C(=O)Nc2ccc(Oc3ccnc4[nH]nc(N[C@H](C)CO)c34)c(F)c2)[n+]([O-])c1-c1ccc(F)cc1` [Final product 85], the IC50 in assay [1] amounted to 3.7 nM; at MET F1200I, 2.3 nM; against MET D1228N it was 10.5 nM; in the assay on Hs746T cell line, 9.4 nM; with H1993 cell line, 29.6 nM; in the assay with EBC-1 cell line it was 10.4 nM.

On to `C[C@H](CO)Nc1n[nH]c2nccc(Oc3ccc(NC(=O)c4cccc(-c5ccc(F)cc5)[n+]4[O-])cc3Cl)c12` [Final product 97], for which the IC50 in assay [1] came to 3.3 nM; on MET F1200I, 7 nM; on MET D1228N it was 20.8 nM; in the assay with Hs746T cell line it was 12.1 nM; with H1993 cell line it was 36.4 nM; in the assay on EBC-1 cell line it was 12.9 nM.

As to `C[C@H](CO)Nc1n[nH]c2nccc(Oc3ccc(NC(=O)c4ccc(F)c(-c5ccc(F)cc5)[n+]4[O-])cc3Cl)c12` [Final product 117], the IC50 in assay [1] is 0.9 nM; against MET F1200I, 0.9 nM; on MET D1228N, 17.8 nM; in the assay on Hs746T cell line it was 7 nM; with H1993 cell line it was 57.2 nM; in the assay with EBC-1 cell line, 17.2 nM.

For `Cc1ccc(C(=O)Nc2ccc(Oc3ccnc4[nH]nc(N[C@H](C)CO)c34)c(Cl)c2)[n+]([O-])c1-c1ccc(F)cc1` [Final product 124], the half-inhibitory concentration (IC50) in assay [1] was determined as 0.8 nM; at MET F1200I, 0.8 nM; against MET D1228N it was 7.6 nM; with Hs746T cell line, 21.9 nM; in the assay with H1993 cell line, 29.9 nM; in the assay on EBC-1 cell line, 14.9 nM.

For the compound `COc1ccc(C(=O)Nc2ccc(Oc3ccnc4[nH]nc(N[C@H](C)CO)c34)c(Cl)c2)[n+]([O-])c1-c1ccc(F)cc1` [Final product 138], the IC50 in assay [1] was found to be 1.6 nM; at MET F1200I, 0.6 nM; against MET D1228N, 38.5 nM; in the assay with Hs746T cell line, 8.7 nM; in the assay on H1993 cell line, 29.3 nM; with EBC-1 cell line, 9.4 nM.

On to `O=C(Nc1ccc(Oc2ccnc3[nH]cc(-c4cccnc4)c23)c(F)c1)c1ccc(Cl)c(-c2ccc(F)cc2)[n+]1[O-]` [Final product 185, reference compound], for which the IC50 in assay [1] is 20.4 nM; against MET F1200I, 187 nM; against MET D1228N, 62 nM; in the assay with Hs746T cell line it was 155 nM; in the assay on H1993 cell line, 204 nM; in the assay with EBC-1 cell line it was 133 nM.
